Assay results as given in US20040121968A1, “Antiangiogenesis by inhibiting protein kinase CK2 activity” (priority 2002, published 2004).
Starred links: 1 amine or outer side, 2 acyl side, 3 side chain; linkers in the order of their positions; H or OH if unused. Positions of bridges follow the written chain, without caps; N, C: chain ends. Non-standard residues stand in square brackets, D forms with d. Residues, ends and D or L forms follow the SMILES beside them. Chains are numbered I, II in the order given. Actinocin(9to1) = Cc1c2oc3c(C)ccc(C(=O)[*:1])c3nc-2c(C(=O)[*:2])c(N)c1=O; NMeV = CN[C@H](C(=O)O)C(C)C; Sar = CNCC(=O)O

Test system: retinal endothelial cells (REC)
Experiment: REC angiogenic assays taken together (proliferation, secondary sprouting, migration, tube formation)
Type: cell-based, bovine
Details: all assays
Description: Human REC (from normal, diabetic and patients with DR [“DR REC”]) and bovine REC were cultured in monolayer (for migration assay) or on top of Matrigel™ where cells form capillary-like tubes. They were treated with angiogenic growth factors or their combinations (at 10 ng/ml of each factor), and seeded with or without TN-C at 10-50 μg/mL. Cell numbers were determined by MTS assay (Promega Corp., Madison, Wis.). Tube length and number, and cell migration were assessed microscopically.
Treatment of REC cultures. Duplicate REC cultures on plastic (for migration) or Matrigel™ with the same number of cells per dish are treated with previously established working concentrations of signaling inhibitors and/or select growth factor combinations. Treatments begin at the time of seeding the cells and medium is changed every other day. Single growth factors are used as negative controls since their modulation of TN-C effects was minimal. Working growth factor concentrations were as follows: VEGF, 1-50 ng/mL depending on the assay; PlGF, 100 ng/mL; FGF-2, 10-100 ng/mL; IGF-I, 25-100 ng/mL; PDGF-BB, 10-100 ng/mL. When used as combinations, each growth factor was supplied at 10 ng/mL for optimum synergy. […]

Cc1c2oc3c(C)ccc(C(=O)N[C@@H]4C(=O)N[C@H](C(C)C)C(=O)N5CCC[C@H]5C(=O)N(C)CC(=O)N(C)[C@@H](C(C)C)C(=O)O[C@@H]4C)c3nc-2c(C(=O)N[C@@H]2C(=O)N[C@H](C(C)C)C(=O)N3CCC[C@H]3C(=O)N(C)CC(=O)N(C)[C@@H](C(C)C)C(=O)O[C@@H]2C)c(N)c1=O [Actinomycin D] (I: T[dV]P[Sar][NMeV] / II: T[dV]P[Sar][NMeV]; ester I:1-I:C, II:1-II:C; linker I:N-II:N via Actinocin(9to1))
effect of inhibitor in the angiogenic assays: only minor changes
